Earlier results as cited in patent US8354121B2, “Tape preparation” (Dainippon Sumitomo Pharma Co., Ltd., priority 2006, dated 2013).

What was measured:
dopamine D2 receptor = dopamine D2 receptor (Homo sapiens, UniProt P14416); conditions: compared with haloperidol
serotonin 5-HT2 receptor = conditions: compared with haloperidol

dopamine D2 receptor, sequence (P14416 whole entry, species assumed): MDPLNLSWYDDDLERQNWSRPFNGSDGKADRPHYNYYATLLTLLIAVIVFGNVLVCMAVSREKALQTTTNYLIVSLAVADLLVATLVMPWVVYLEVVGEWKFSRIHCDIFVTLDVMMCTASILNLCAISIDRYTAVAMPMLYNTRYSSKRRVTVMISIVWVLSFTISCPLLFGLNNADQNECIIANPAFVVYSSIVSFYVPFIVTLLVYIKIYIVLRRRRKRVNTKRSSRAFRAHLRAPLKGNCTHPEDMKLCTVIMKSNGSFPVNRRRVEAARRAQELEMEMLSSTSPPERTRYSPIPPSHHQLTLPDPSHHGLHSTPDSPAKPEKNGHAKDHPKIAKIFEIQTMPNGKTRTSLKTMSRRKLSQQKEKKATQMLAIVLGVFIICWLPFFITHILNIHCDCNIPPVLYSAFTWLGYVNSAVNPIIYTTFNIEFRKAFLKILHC

CCN1CCN(c2cc(-c3ccc(F)cc3)c3c(n2)CCCCCC3)CC1 [Compound A, 2-(4-ethyl-1-piperazinyl)-4-(4-fluorophenyl)-5,6,7,8,9,10-hexahydrocycloocta[b]pyridine]
affinity for dopamine D2 receptor (dopamine D2 receptor): higher affinity
affinity for serotonin 5-HT2 receptor (serotonin 5-HT2 receptor): higher affinity
